The results in this text go back to patent US20230081426A1, “COMPOUNDS AND METHODS FOR KRAS MODULATION AND INDICATIONS THEREFOR” (Plexxikon Inc., priority 2020, published 2023).

The target in assay [1] is T1, G12V-mutant human KRAS (amino acid residues 1-188) (Homo sapiens, UniProt P01116, G12V).
T1 construct: G12V-mutant human KRAS (amino acid residues 1-188) with FLAG tag was purified from E. coli; made in house; host or cells: E. coli
The assay is described as follows: KRAS Binding Competition Assay (AlphaScreen; biotinylated KRpep-2d analogue), G12V. The note with it: geometric mean, read-out: KRAS GMean IC50 (uM) MUTATION: G12V.

The target in assay [2] is T2, G12D-mutant human KRAS (amino acid residues 1-188) (Homo sapiens, UniProt P01116, G12D).
T2 construct: G12D or G12C-mutant human KRAS (amino acid residues 1-188) with FLAG tag; made in house; host or cells: E. coli
The assay can be described thus: KRAS Binding Disruption Assay (AlphaScreen; biotinylated KRpep-2d analogue or RAF1-RBD), G12D. Conditions: KRAS G12D; geometric mean; read-out: KRAS GMean IC50 (uM) MUTATION: G12D. Summed up: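 Compounds are titrated against 5-20 nM mutant KRAS and 5-20 nM of either a biotinylated KRpep-2d analogue or RAF1-RBD, incubated 1 h at 25° C. Disruption is detected as reduced Alpha signal after 1 h with donor and acceptor beads at 10 μg/mL.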

As for `CN1CCC[C@H]1COc1nc(N2C[C@H]3CC[C@@H](C2)N3C(=O)CC(N)=O)c2cc(Cl)c(-c3cc(O)cc4ccccc34)c(F)c2n1` [P-0451, 3-((1R,5S)-3-(6-chloro-8-fluoro-7-(3-hydroxynaphthalen-1-yl)-2-(((S)-1-methylpyrrolidin-2-yl)methoxy)quinazolin-4-yl)-3,8-diazabicyclo[3.2.1]octan-8-yl)-3-oxopropanamide], the 50% inhibitory concentration (IC50) in assay [1] was 10 to 100 µM; in assay [2], 0.0001 to 10 µM.
As for `NS(=O)(=O)C1(C(=O)N2[C@@H]3CC[C@H]2CN(c2nc(OCC45CCCN4CCC5)nc4c(F)c(-c5cc(O)cc6ccccc56)ccc24)C3)CC1` [P-0452, 1-((1R,5S)-3-(8-fluoro-7-(3-hydroxynaphthalen-1-yl)-2-((tetrahydro-1H-pyrrolizin-7a(5H)-yl)methoxy)quinazolin-4-yl)-3,8-diazabicyclo[3.2.1]octane-8-carbonyl)cyclopropane-1-sulfonamide], the IC50 in assay [1] and in assay [2] was 0.0001 to 10 µM throughout.
Consider `Cc1cccc2c1N(c1ncc3c(N4C[C@H]5CC[C@@H](C4)N5)nc(OCC45CCCN4CCC5)nc3c1F)CC(O)C2` (stereo partly drawn) [P-0453, 1-(4-((1R,5S)-3,8-diazabicyclo[3.2.1]octan-3-yl)-8-fluoro-2-((tetrahydro-1H-pyrrolizin-7a(5H)-yl)methoxy)pyrido[4,3-d]pyrimidin-7-yl)-8-methyl-1,2,3,4-tetrahydroquinolin-3-ol], for which the figures for the IC50 in assay [1] and in assay [2] were 100 to 1000 µM and 0.0001 to 10 µM, respectively.
Regarding `Cc1cccc2c1N(c1ccc3c(N4C[C@H]5CC[C@@H](C4)N5)nc(OCC45CCCN4CCC5)nc3c1F)CC(O)C2` (stereo partly drawn) [P-0454, 1-(4-((1R,5S)-3,8-diazabicyclo[3.2.1]octan-3-yl)-8-fluoro-2-((tetrahydro-1H-pyrrolizin-7a(5H)-yl)methoxy)quinazolin-7-yl)-8-methyl-1,2,3,4-tetrahydroquinolin-3-ol], the concentration for half-maximal inhibition (IC50) in assay [1] was in the range of 100 to 1000 µM; in assay [2], 0.0001 to 10 µM.
On to `CCCc1nc(N2C[C@H]3CC[C@@H](C2)N3)c2ccc(-c3cc(O)cc4ccccc34)c(F)c2n1` [P-0455, 4-(4-((1R,5S)-3,8-diazabicyclo[3.2.1]octan-3-yl)-8-fluoro-2-propylquinazolin-7-yl)naphthalen-2-ol], for which the half-inhibitory concentration (IC50) in assay [1] was in the range of 10 to 100 µM; in assay [2] it was 0.0001 to 10 µM.
Consider `OCc1nc(N2C[C@H]3CC[C@@H](C2)N3)c2cc(Cl)c(-c3c(O)cccc3F)c(F)c2n1` [P-0456, 2-(4-((1R,5S)-3,8-diazabicyclo[3.2.1]octan-3-yl)-6-chloro-8-fluoro-2-(hydroxymethyl)quinazolin-7-yl)-3-fluorophenol], for which the IC50 in assay [1] and in assay [2] was 10 to 100 µM throughout.
In the case of `Cc1cccc2c(Nc3c(F)cc4c(N5C[C@H]6CC[C@@H](C5)N6)nc(OC[C@@H]5CCCN5C)nc4c3F)n[nH]c12` [P-0457, 4-((1R,5S)-3,8-diazabicyclo[3.2.1]octan-3-yl)-6,8-difluoro-N-(7-methyl-1H-indazol-3-yl)-2-(((S)-1-methylpyrrolidin-2-yl)methoxy)quinazolin-7-amine], the half-inhibitory concentration (IC50) in assay [1] and in assay [2] was 10 to 100 µM throughout.
`CN1CCC[C@H]1COc1nc(N2C[C@H]3CC[C@@H](C2)N3)c2ccc(-n3nc(O)c4cccc(F)c43)c(F)c2n1` [P-0458, 1-(4-((1R,5S)-3,8-diazabicyclo[3.2.1]octan-3-yl)-8-fluoro-2-(((S)-1-methylpyrrolidin-2-yl)methoxy)quinazolin-7-yl)-7-fluoro-1H-indazol-3-ol]: the IC50 was in the range of 100 to 1000 µM in assay [1] and 10 to 100 µM in assay [2].
Taken in the same sequence, the figures for `OCC(O)c1nc(N2C[C@H]3CC[C@@H](C2)N3)c2ccc(-c3cc(O)cc4ccccc34)c(F)c2n1` (stereo partly drawn) [P-0459, 1-(4-((1R,5S)-3,8-diazabicyclo[3.2.1]octan-3-yl)-8-fluoro-7-(3-hydroxynaphthalen-1-yl)quinazolin-2-yl)ethane-1,2-diol] were 0.0001 to 10 µM and 0.0001 to 10 µM.
Taken in the same sequence, the figures for `CN1CC(=O)N(Cc2nc(N3C[C@H]4CC[C@@H](C3)N4)c3cc(Cl)c(-c4c(O)cccc4F)c(F)c3n2)C1=O` [P-0460, 3-((4-((1R,5S)-3,8-diazabicyclo[3.2.1]octan-3-yl)-6-chloro-8-fluoro-7-(2-fluoro-6-hydroxyphenyl)quinazolin-2-yl)methyl)-1-methylimidazolidine-2,4-dione] were 10 to 100 µM and 10 to 100 µM.
For `N#CCC(=O)N1[C@@H]2CC[C@H]1CN(c1nc(OCC34CCCN3CCC4)nc3c(F)c(-c4cc(O)cc5ccccc45)c(Cl)cc13)C2` [P-0461, 3-((1R,5S)-3-(6-chloro-8-fluoro-7-(3-hydroxynaphthalen-1-yl)-2-((tetrahydro-1H-pyrrolizin-7a(5H)-yl)methoxy)quinazolin-4-yl)-3,8-diazabicyclo[3.2.1]octan-8-yl)-3-oxopropanenitrile], in that order: 0.0001 to 10 µM and 0.0001 to 10 µM.
Regarding `Cc1cccc2c(O)nn(-c3ccc4c(N5C[C@H]6CC[C@@H](C5)N6)nc(OC[C@@H]5CCCN5C)nc4c3F)c12` [P-0462, 1-(4-((1R,5S)-3,8-diazabicyclo[3.2.1]octan-3-yl)-8-fluoro-2-(((S)-1-methylpyrrolidin-2-yl)methoxy)quinazolin-7-yl)-7-methyl-1H-indazol-3-ol], the concentration for half-maximal inhibition (IC50) in assay [1] and in assay [2] was 10 to 100 µM in each case.
For `CN1CCC[C@H]1COc1nc(N2C[C@H]3CC[C@@H](C2)N3C(=O)CC#N)c2cc(F)c(-c3cc(O)cc4ccccc34)c(F)c2n1` [P-0464, 3-((1R,5S)-3-(6,8-difluoro-7-(3-hydroxynaphthalen-1-yl)-2-(((S)-1-methylpyrrolidin-2-yl)methoxy)quinazolin-4-yl)-3,8-diazabicyclo[3.2.1]octan-8-yl)-3-oxopropanenitrile], the concentration for half-maximal inhibition (IC50) in assay [1] is 0.0001 to 10 µM; in assay [2] it was 10 to 100 µM.
As for `Cc1cccc2cccc(-c3ccc4c(N5C[C@H]6CC[C@@H](C5)N6)nc(OC[C@@H]5CCCN5C)nc4c3F)c12` [P-0465, 4-((1R,5S)-3,8-diazabicyclo[3.2.1]octan-3-yl)-8-fluoro-7-(8-methylnaphthalen-1-yl)-2-(((S)-1-methylpyrrolidin-2-yl)methoxy)quinazoline], the figures for the half-inhibitory concentration (IC50) in assay [1] and in assay [2] were 10 to 100 µM and 0.0001 to 10 µM, respectively.
With `Fc1c(-c2c[nH]c3ccc(Cl)c(F)c23)c(Cl)cc2c(N3C[C@H]4CC[C@@H](C3)N4)nc(OCC34CCCN3CCC4)nc12` [P-0466, 4-((1R,5S)-3,8-diazabicyclo[3.2.1]octan-3-yl)-6-chloro-7-(5-chloro-4-fluoro-1H-indol-3-yl)-8-fluoro-2-((tetrahydro-1H-pyrrolizin-7a(5H)-yl)methoxy)quinazoline], the IC50 is 10 to 100 µM in assay [1] and 0.0001 to 10 µM in assay [2].
As to `CN1CCC[C@H]1COc1nc(N2C[C@H]3CC[C@@H](C2)N3CC(=O)C2CCNCC2)c2ccc(-c3cc(O)cc4ccccc34)c(F)c2n1` [P-0467, 2-((1R,5S)-3-(8-fluoro-7-(3-hydroxynaphthalen-1-yl)-2-(((S)-1-methylpyrrolidin-2-yl)methoxy)quinazolin-4-yl)-3,8-diazabicyclo[3.2.1]octan-8-yl)-1-(piperidin-4-yl)ethan-1-one], the IC50 in assay [1] fell in the range of 10 to 100 µM; in assay [2] it was 0.0001 to 10 µM.
For `CN1CCC[C@H]1COc1nc(N2C[C@H]3CC[C@@H](C2)N3C(=N)N)c2ccc(-c3cc(O)cc4ccccc34)c(F)c2n1` [P-0468, (1R,5S)-3-(8-fluoro-7-(3-hydroxynaphthalen-1-yl)-2-(((S)-1-methylpyrrolidin-2-yl)methoxy)quinazolin-4-yl)-3,8-diazabicyclo[3.2.1]octane-8-carboximidamide], in that order: 10 to 100 µM and 0.0001 to 10 µM.
Regarding `CN1CCC[C@H]1COc1nc(N2C[C@H]3CC[C@@H](C2)N3c2cnccn2)c2ccc(-c3cc(O)cc4ccccc34)c(F)c2n1` [P-0469, 4-(8-fluoro-2-(((S)-1-methylpyrrolidin-2-yl)methoxy)-4-((1R,5S)-8-(pyrazin-2-yl)-3,8-diazabicyclo[3.2.1]octan-3-yl)quinazolin-7-yl)naphthalen-2-ol], the IC50 is 100 to 1000 µM in assay [1] and 0.0001 to 10 µM in assay [2].
Consider `CN1CCC[C@H]1COc1nc(N2C[C@H]3CC[C@@H](C2)N3C(=O)Cc2cc[nH]n2)c2ccc(-c3cc(O)cc4ccccc34)c(F)c2n1` [P-0470, 1-((1R,5S)-3-(8-fluoro-7-(3-hydroxynaphthalen-1-yl)-2-(((S)-1-methylpyrrolidin-2-yl)methoxy)quinazolin-4-yl)-3,8-diazabicyclo[3.2.1]octan-8-yl)-2-(1H-pyrazol-3-yl)ethan-1-one], for which the results for the IC50 in assay [1] and in assay [2] were 10 to 100 µM and 100 to 1000 µM, respectively.
Take `CN1CCC[C@H]1COc1nc(N2C[C@H]3CC[C@@H](C2)N3CC(=O)N2CCNCC2)c2ccc(-c3cc(O)cc4ccccc34)c(F)c2n1` [P-0471, 2-((1R,5S)-3-(8-fluoro-7-(3-hydroxynaphthalen-1-yl)-2-(((S)-1-methylpyrrolidin-2-yl)methoxy)quinazolin-4-yl)-3,8-diazabicyclo[3.2.1]octan-8-yl)-1-(piperazin-1-yl)ethan-1-one]: the values for the IC50 in assay [1] and in assay [2] were 100 to 1000 µM and 0.0001 to 10 µM, respectively.
As for `CN1CCC[C@H]1COc1nc(N2C[C@H]3CC[C@@H](C2)N3CC(O)CO)c2ccc(-c3cc(O)cc4ccccc34)c(F)c2n1` (stereo partly drawn) [P-0472, 3-((1R,5S)-3-(8-fluoro-7-(3-hydroxynaphthalen-1-yl)-2-(((S)-1-methylpyrrolidin-2-yl)methoxy)quinazolin-4-yl)-3,8-diazabicyclo[3.2.1]octan-8-yl)propane-1,2-diol], the IC50 in assay [1] and in assay [2] was 0.0001 to 10 µM throughout.
